Tested on: A549 (Human lung cancer cell line)
Experiment: Effect of combination of sulfonamide compound and other antitumor agent (CellTiter-Glo, combination index): A549
[1] = Table 36: Example Compound 1 345 nM + Prexasertib 1.98 nM, molar ratio 1:0.005730
[2] = Table 36: Example Compound 1 345 nM + SCH900776 910 nM, molar ratio 1:2.639
[3] = Table 36: Example Compound 1 517 nM + AZD6738 1037 nM, molar ratio 1:2.005
[4] = Table 36: Example Compound 1 517 nM + Fludarabine nucleoside 5910 nM, molar ratio 1:11.44
[5] = Table 36: Example Compound 1 517 nM + Prexasertib 2.96 nM, molar ratio 1:0.005730
[6] = Table 36: Example Compound 1 517 nM + SCH900776 1360 nM, molar ratio 1:2.639
[7] = Table 36: Example Compound 1 775 nM + AZD6738 1554 nM, molar ratio 1:2.005
[8] = Table 36: Example Compound 1 775 nM + Decitabine 1340 nM, molar ratio 1:1.733
[9] = Table 36: Example Compound 1 775 nM + Fludarabine nucleoside 8870 nM, molar ratio 1:11.44
[10] = Table 36: Example Compound 1 775 nM + Guadecitabine 469 nM, molar ratio 1:0.6048
[11] = Table 36: Example Compound 1 775 nM + Prexasertib 4.44 nM, molar ratio 1:0.005730
[12] = Table 36: Example Compound 1 775 nM + SCH900776 2050 nM, molar ratio 1:2.639
[13] = Table 36: Example Compound 1 1160 nM + AZD6738 2326 nM, molar ratio 1:2.005
[14] = Table 36: Example Compound 1 1160 nM + Cytarabine 110 nM, molar ratio 1:0.09524
[15] = Table 36: Example Compound 1 1160 nM + Decitabine 2010 nM, molar ratio 1:1.733
[16] = Table 36: Example Compound 1 1160 nM + Fludarabine nucleoside 13300 nM, molar ratio 1:11.44
[17] = Table 36: Example Compound 1 1160 nM + Gemcitabine 5.58 nM, molar ratio 1:0.004813
[18] = Table 36: Example Compound 1 1160 nM + Guadecitabine 702 nM, molar ratio 1:0.6048
[19] = Table 36: Example Compound 1 1160 nM + SCH900776 3060 nM, molar ratio 1:2.639
[20] = Table 36: Example Compound 1 1160 nM + Sunitinib 1870 nM, molar ratio 1:1.608
[21] = Table 36: Example Compound 1 1160 nM + Trifluridine 430 nM, molar ratio 1:0.3703
[22] = Table 36: Example Compound 1 1740 nM + 5-Fluorouracil 4300 nM, molar ratio 1:2.469
[23] = Table 36: Example Compound 1 1740 nM + Azacytidine 4080 nM, molar ratio 1:2.344
[24] = Table 36: Example Compound 1 1740 nM + Cabozantinib 5990 nM, molar ratio 1:3.443
[25] = Table 36: Example Compound 1 1740 nM + Cytarabine 166 nM, molar ratio 1:0.09524
[26] = Table 36: Example Compound 1 1740 nM + Decitabine 3020 nM, molar ratio 1:1.733
[27] = Table 36: Example Compound 1 1740 nM + Etoposide 3780 nM, molar ratio 1:2.174
[28] = Table 36: Example Compound 1 1740 nM + Fludarabine nucleoside 19900 nM, molar ratio 1:11.44
[29] = Table 36: Example Compound 1 1740 nM + Gemcitabine 8.37 nM, molar ratio 1:0.004813
[30] = Table 36: Example Compound 1 1740 nM + Guadecitabine 1050 nM, molar ratio 1:0.6048
[31] = Table 36: Example Compound 1 1740 nM + Lapatinib 5990 nM, molar ratio 1:3.443
[32] = Table 36: Example Compound 1 1740 nM + Luminespib 13.5 nM, molar ratio 1:0.007735
[33] = Table 36: Example Compound 1 1740 nM + Midostaurin 250 nM, molar ratio 1:0.1438
[34] = Table 36: Example Compound 1 1740 nM + Olaparib 14800 nM, molar ratio 1:8.494
[35] = Table 36: Example Compound 1 1740 nM + Oxaliplatin 1060 nM, molar ratio 1:0.6082
[36] = Table 36: Example Compound 1 1740 nM + SCH900776 4590 nM, molar ratio 1:2.639
[37] = Table 36: Example Compound 1 1740 nM + Sunitinib 2800 nM, molar ratio 1:1.608
[38] = Table 36: Example Compound 1 1740 nM + Talazoparib 7980 nM, molar ratio 1:4.587
[39] = Table 36: Example Compound 1 1740 nM + Trifluridine 644 nM, molar ratio 1:0.3703
[40] = Table 36: Example Compound 1 2620 nM + Carboplatin 79500 nM, molar ratio 1:30.35
[41] = Table 36: Example Compound 1 2620 nM + Cisplatin 3610 nM, molar ratio 1:3.669
[42] = Table 36: Example Compound 1 2620 nM + Trifluridine 970 nM, molar ratio 1:0.3703
[43] = Table 36: Example Compound 1 3920 nM + Carboplatin 119000 nM, molar ratio 1:30.35
[44] = Table 36: Example Compound 1 3920 nM + Cisplatin 14400 nM, molar ratio 1:3.669
[45] = Table 36: Example Compound 1 5890 nM + Carboplatin 179000 nM, molar ratio 1:30.35
[46] = Table 36: Example Compound 1 8830 nM + Carboplatin 268000 nM, molar ratio 1:30.35

Compound: Cc1ccc(F)c([C@@H](C)[C@H](NS(=O)(=O)c2ccc(Br)cc2C(N)=O)c2n[nH]c(=O)o2)c1C [Example 1, 5-bromo-2-(N-((1 S,2R)-2-(6-fluoro-2,3-dimethylphenyl)-1-(5-oxo-4,5-dihydro-1,3,4-oxadiazol-2-yl)propyl)sulfamoyl)benzamide]
- CI value [1]: 0.363
- Fa value [1]: 0.4283
- CI value [2]: 0.287
- Fa value [2]: 0.5875
- CI value [3]: 0.486
- Fa value [3]: 0.5213
- CI value [4]: 0.818
- Fa value [4]: 0.1823
- CI value [5]: 0.207
- Fa value [5]: 0.7673
- CI value [6]: 0.250
- Fa value [6]: 0.7191
- CI value [7]: 0.318
- Fa value [7]: 0.7989
- CI value [8]: 0.528
- Fa value [8]: 0.3618
- CI value [9]: 0.559
- Fa value [9]: 0.5070
- CI value [10]: 0.558
- Fa value [10]: 0.3478
- CI value [11]: 0.174
- Fa value [11]: 0.8934
- CI value [12]: 0.210
- Fa value [12]: 0.8457
- CI value [13]: 0.309
- Fa value [13]: 0.8880
- CI value [14]: 0.842
- Fa value [14]: 0.4712
- CI value [15]: 0.573
- Fa value [15]: 0.4748
- CI value [16]: 0.405
- Fa value [16]: 0.8089
- CI value [17]: 0.865
- Fa value [17]: 0.6357
- CI value [18]: 0.627
- Fa value [18]: 0.4476
- CI value [19]: 0.255
- Fa value [19]: 0.8825
- CI value [20]: 0.740
- Fa value [20]: 0.7514
- CI value [21]: 0.842
- Fa value [21]: 0.6401
- CI value [22]: 0.835
- Fa value [22]: 0.7276
- CI value [23]: 0.820
- Fa value [23]: 0.6539
- CI value [24]: 0.688
- Fa value [24]: 0.8307
- CI value [25]: 0.619
- Fa value [25]: 0.7121
- CI value [26]: 0.627
- Fa value [26]: 0.5994
- CI value [27]: 0.631
- Fa value [27]: 0.7574
- CI value [28]: 0.537
- Fa value [28]: 0.8431
- CI value [29]: 0.757
- Fa value [29]: 0.8623
- CI value [30]: 0.640
- Fa value [30]: 0.5997
- CI value [31]: 0.400
- Fa value [31]: 0.8672
- CI value [32]: 0.828
- Fa value [32]: 0.8341
- CI value [33]: 0.624
- Fa value [33]: 0.8366
- CI value [34]: 0.575
- Fa value [34]: 0.7460
- CI value [35]: 0.787
- Fa value [35]: 0.7638
- CI value [36]: 0.411
- Fa value [36]: 0.8708
- CI value [37]: 0.811
- Fa value [37]: 0.8380
- CI value [38]: 0.508
- Fa value [38]: 0.7568
- CI value [39]: 0.696
- Fa value [39]: 0.8343
- CI value [40]: 0.519
- Fa value [40]: 0.8844
- CI value [41]: 0.701
- Fa value [41]: 0.9341
- CI value [42]: 0.744
- Fa value [42]: 0.9017
- CI value [43]: 0.474
- Fa value [43]: 0.9458
- CI value [44]: 0.608
- Fa value [44]: 0.9720
- CI value [45]: 0.627
- Fa value [45]: 0.9560
- CI value [46]: 0.635
- Fa value [46]: 0.9773

Reference: patent publication US20200405697A1, “Antitumor Agent” (Taiho Pharmaceutical Co., Ltd, priority 2017, published 2020)
